Data as given in the supplement of paper PMC12592484.

Legend:
Experiment in all cases: drug sensitivity score (DSS2, normalised partial AUC of dose-response, 72 h CellTiter-Glo viability) (DSS (dimensionless)); higher = more sensitive (stronger growth inhibition / cytotoxicity); extreme values may be limits of the assay
CAF#2 = test system: CAF#2 (primary prostate cancer-associated fibroblasts of iCAF-like type)
In short: (§1)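 Viability of low-passage primary prostate cancer-associated fibroblasts, PF179T, WPMY-1, LNCaP and 22Rv1 cells was read by CellTiter-Glo 2.0 luminescence 72 h after seeding onto compounds pre-dispensed in 384-well plates at five doses over a 10,000-fold range. Readings were scaled between vehicle and positive-control wells. Sensitivity is reported as a drug sensitivity score from BREEZE, namely a partial area under the fitted logistic curve divided by the log of its upper asymptote, where higher means more sensitive.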

PF179T = test system: PF179T
In short: as §1

LNCAP = test system: LNCAP
In short: as §1

CAF#7 = test system: CAF#7 (primary prostate cancer-associated fibroblasts of myCAF-like type)
In short: as §1

CAF#6 = test system: CAF#6 (primary prostate cancer-associated fibroblasts of iCAF-like type)
In short: as §1

CAF#4 = test system: CAF#4 (primary prostate cancer-associated fibroblasts of iCAF-like type)
In short: as §1

CAF#5 = test system: CAF#5 (primary prostate cancer-associated fibroblasts of myCAF-like type)
In short: as §1

WPMY-1 = test system: WPMY-1
In short: as §1

22Rv1 = test system: 22Rv1
In short: as §1

CAF#1 = test system: CAF#1 (primary prostate cancer-associated fibroblasts of myCAF-like type)
In short: as §1

CAF#3 = test system: CAF#3 (primary prostate cancer-associated fibroblasts of myCAF-like type)
In short: as §1

SMILES	drug sensitivity score (CAF#2)	drug sensitivity score (PF179T)	drug sensitivity score (LNCAP)	drug sensitivity score (CAF#7)	drug sensitivity score (CAF#6)	drug sensitivity score (CAF#4)	drug sensitivity score (CAF#5)	drug sensitivity score (WPMY-1)	drug sensitivity score (22Rv1)	drug sensitivity score (CAF#1)	drug sensitivity score (CAF#3)
C[C@@]1(C(=O)Nc2ccc(F)nc2)CCCN1c1nc(Nc2cc(C3CC3)n[nH]2)c2cccn2n1 (tested concentration range 1-10000 nM)	12.2	9.4	6.4	10.5	8.7	7.9	10.7	15.6	12.4	10.4	9
C[C@H]1C[C@@H](n2c(Nc3ccc(OC(F)(F)F)cc3)nc3cc(CCC(=O)O)ccc32)CC(C)(C)C1 (tested concentration range 1-10000 nM)	0	0	0.4	0	0	0	0	0	0	0	0
O=C1Cc2cc(C(=O)NC3C[C@H]4CC[C@@H](C3)N4S(=O)(=O)CC3CCN(CCCC(F)(F)F)CC3)c(Cl)cc2N1 (stereo partly specified) (tested concentration range 1-10000 nM)	0	0.5	0	0	0	0	0	0	0	0	0
C[C@@H]1CN(CC(=O)Nc2ccc3c(c2)Cc2cccc(-c4cc(=O)cc(N5CCOCC5)o4)c2S3)C[C@H](C)O1 (tested concentration range 2.5-25000 nM)	0.4	0.4	6.7	0	0.2	0	0	4.2	2.5	0	0.2
NCC(=O)Nc1ccc(-n2nc(C(F)(F)F)cc2-c2ccc3c(ccc4ccccc43)c2)cc1 (tested concentration range 2.5-25000 nM)	0	0	1.4	0	0	0.8	0	4.4	0	0.7	0
CC/C(=C(\c1ccc(O)cc1)c1ccc(OCCN(C)C)cc1)c1ccccc1 [4-hydroxytamoxifen] (tested concentration range 1-10000 nM)	5.3	3.2	4.7	1.6	1.8	6.2	3.8	7.2	6.4	3.3	1.6
Nc1ncnc2c1nc(Cl)n2[C@@H]1O[C@H](CO)[C@@H](O)[C@H]1O [8-chloro-adenosine] (tested concentration range 5-50000 nM)	8.4	9.1	15.1	2	2.5	9.6	6.5	15.7	15	7.4	3.4
COc1cc2c(cc1OCCCN1CCCC1)N=C(N)C21CCC1 [A-366] (tested concentration range 2.5-25000 nM)	0	0.1	5.6	0	1.5	0	0	4.5	6.7	0	0.7
Cc1sc2c(c1C)C(c1ccc(Cl)cc1)=N[C@@H](CC(=O)Nc1ccc(OCCOCCOCCOCCNc3cccc4c3C(=O)N(C3CCC(=O)NC3=O)C4=O)cc1)c1nnc(C)n1-2 (stereo partly specified) [ARV-825] (tested concentration range 0-300 nM)	5.8	3.3	17.1	17.1	11.6	6.9	6.2	8.1	14.7	7.7	15.6
CN[C@@H](C)C(=O)N[C@H]1CN(C(=O)CC(C)C)CC[C@H]2CC[C@@H](C(=O)NC(c3ccccc3)c3ccccc3)N2C1=O [AT-406] (tested concentration range 1-10000 nM)	0	0	0	0	1.6	0	0	0	0	0	0
CO[C@H]1CC[C@H](N2C(=O)CNc3ncc(-c4ccc(C(C)(C)O)nc4)nc32)CC1 [ATG-008] (tested concentration range 1-10000 nM)	7	6.3	7.6	3.1	2.8	6.5	7.4	6.2	8.9	5.7	5.5
